{"source": "patent US8012967B2", "about": "“Minor groove binders” (University of Strathclyde, priority 2006, dated 2011)", "key": {"[1]": {"test_system": "Candida albicans (NCPF3179)", "assay": "MIC, Candida albicans", "format": "cell-based", "conditions": "Candida albicans, NCPF3179, read-out: Minimum inhibitory concentrations (MICs), C. albicans"}, "[2]": {"test_system": "Aspergillus niger (IMI 1745)", "assay": "MIC, Aspergillus niger", "format": "cell-based", "conditions": "Aspergillus niger, read-out: Minimum inhibitory concentrations (MICs), A. niger"}, "[3]": {"test_system": "Mycobacter fortuitum (NCTC 10394)", "assay": "MIC, Mycobacter fortuitum", "format": "cell-based", "conditions": "Mycolicibacterium fortuitum, NCTC10394, read-out: Minimum inhibitory concentrations (MICs), M. fortuitum", "description": "The effects of compounds of the invention in relation to inhibiting the growth of various microorganisms was determined using methods known to those skilled in the art, for example in vitro methods as described in J. Med. Chem. 47, 2133-2156 (2004) and in vivo methods as described in J. Med. Microbiol. 46, 208-213 (1997), the disclosures of which documents are hereby incorporated by reference. In particular, minimum inhibitory concentrations (MICs) against microorganisms (e.g. S. Aureus, Streptococcus faecalis, Aspergillus niger, Candida albicans or Mycobacterium fortuitum) for compounds of the invention may be measured using procedures such as those described in A. J. Drummond and […] development of microbiological methods for phytochemical screening” Recent Res. Devel. […] The test wells on each 96 well microtitre plate were initially inoculated with culture medium (100 μL) using Mueller-Hinton Broth for antibacterial assays and Sabouraud Broth for antifungal assays. A solution of each test sample (100 μL) was added to one row of each plate and a series of doubling dilutions made for successive rows. Incubation was at 37° C. for antibacterial assay and 25° C. for antifungal assay. […] From the observed pattern of colour, the MIC was determined. All tests included sterility and growth controls."}, "[4]": {"test_system": "Staphylococcus aureus Strain 1 (BSAC04(1)) (Clinical isolate from Glasgow Royal Infirmary)", "assay": "MIC, Staphylococcus aureus Strain 1", "format": "cell-based", "conditions": "Staphylococcus aureus, read-out: Minimum inhibitory concentrations (MICs), S aureus 1", "how_it_was_run": "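Broth microdilution in Mueller-Hinton Broth: test sample at 200 μg/ml working concentration, serially doubled across rows, incubated at 37° C. MIC taken from the colour pattern, with sterility and growth controls included.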"}, "[5]": {"test_system": "clinical strains of S. aureus in the Scottish Clinical Isolates Collection", "assay": "MIC against collected clinical strains of S. aureus (BSAC03/04/05 (1)-(10))", "format": "cell-based, Staphylococcus aureus", "conditions": "for MIC: Staphylococcus aureus, read-out: Minimum inhibitory concentrations (MICs)", "description": "In particular, minimum inhibitory concentrations (MICs) against microorganisms (e.g. S. Aureus, Streptococcus faecalis, Aspergillus niger, Candida albicans or Mycobacterium fortuitum) for compounds of the invention may be measured using procedures such as those described in A. J. Drummond and R. D. Waigh “The development of microbiological methods for phytochemical screening” Recent Res. Devel. Phytochem. 4, 143-152 (2000), the disclosures of which document are hereby incorporated by reference.\nSample dilutions were typically prepared by dissolving the test sample (2 mg) in sterile water (10 mL) to provide a working concentration of 200 μg/ml. The test wells on each 96 well microtitre plate were initially inoculated with culture medium (100 μL) using Mueller-Hinton Broth for antibacterial assays and Sabouraud Broth for antifungal assays. A solution of each test sample (100 μL) was added to one row of each plate and a series of doubling dilutions made for successive rows. Incubation was at 37° C. for antibacterial assay and 25° C. for antifungal assay. […] From the observed pattern of colour, the MIC was determined. All tests included sterility and growth controls.\nBSAC03/04/05 (1)-(10) refer to collected clinical strains of S. aureus in the Scottish Clinical Isolates Collection."}, "[6]": {"test_system": "Streptococcus faecalis (NCTC 775)", "assay": "MIC, Streptococcus faecalis", "format": "cell-based", "conditions": "Enterococcus faecalis, NCTC775, read-out: Minimum inhibitory concentrations (MICs), St. faecalis", "how_it_was_run": "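Broth microdilution with doubling dilutions of compound in Mueller-Hinton Broth, incubated at 37° C. MIC read from the colour pattern in the wells. Sterility and growth controls included.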"}, "[7]": {"conditions": "value in parentheses, na = not active"}}, "note": "Read-outs that look alike come from different tables or passages of the source.", "data": [{"smiles": "Cn1cc(NC(=O)c2cc(NC(=O)c3ccc(/C=C/c4cnc5ccccc5c4)cc3)cn2C)cc1C(=O)NCCN1CCOCC1", "note": "[Example 2, 1-Methyl-4-({[1-methyl-4-({4-[(E)-2-(3-quinolinyl)ethenyl]benzoyl}amino)-1H-pyrrol-2-yl]carbonyl}amino)-N-[2-(4-morpholinyl)ethyl]-1H-pyrrole-2-carboxamide]", "values": [{"measurement": "MIC", "setting": "[1]; [7]", "result": 25, "unit": "µg/mL"}, {"measurement": "MIC", "setting": "[1]; value outside parentheses", "result": 33.5, "unit": "µM"}, {"measurement": "MIC", "setting": "[2]; [7]", "result": 50, "unit": "µg/mL"}, {"measurement": "MIC", "setting": "[2]; value outside parentheses", "result": 67, "unit": "µM"}, {"measurement": "MIC", "setting": "[3]; [7]", "result": 50, "unit": "µg/mL"}, {"measurement": "MIC", "setting": "[3]; value outside parentheses", "result": 67, "unit": "µM"}, {"measurement": "MIC", "setting": "[4]; [7]", "result": 0.12, "unit": "µg/mL"}, {"measurement": "MIC", "setting": "[4]; value outside parentheses", "result": 0.16, "unit": "µM"}, {"measurement": "MIC", "setting": "[5]; S. aureus BSAC culture year 2003 number 1", "result": 0.25, "unit": "µg/mL"}, {"measurement": "MIC", "setting": "[5]; S. aureus BSAC culture year 2003 number 2", "result": 0.25, "unit": "µg/mL"}, {"measurement": "MIC", "setting": "[5]; S. aureus BSAC culture year 2003 number 3", "result": 0.25, "unit": "µg/mL"}, {"measurement": "MIC", "setting": "[5]; S. aureus BSAC culture year 2003 number 4", "result": 0.12, "unit": "µg/mL"}, {"measurement": "MIC", "setting": "[5]; S. aureus BSAC culture year 2003 number 5", "result": 0.12, "unit": "µg/mL"}, {"measurement": "MIC", "setting": "[5]; S. aureus BSAC culture year 2003 number 6", "result": 0.12, "unit": "µg/mL"}, {"measurement": "MIC", "setting": "[5]; S. aureus BSAC culture year 2003 number 7", "result": 0.12, "unit": "µg/mL"}, {"measurement": "MIC", "setting": "[5]; S. aureus BSAC culture year 2003 number 8", "result": 0.06, "unit": "µg/mL"}, {"measurement": "MIC", "setting": "[5]; S. aureus BSAC culture year 2003 number 9", "result": 0.25, "unit": "µg/mL"}, {"measurement": "MIC", "setting": "[5]; S. aureus BSAC culture year 2003 number 10", "result": 0.25, "unit": "µg/mL"}, {"measurement": "MIC", "setting": "[5]; S. aureus BSAC culture year 2004 number 1", "result": 0.25, "unit": "µg/mL"}, {"measurement": "MIC", "setting": "[5]; S. aureus BSAC culture year 2004 number 2", "result": 0.5, "unit": "µg/mL"}, {"measurement": "MIC", "setting": "[5]; S. aureus BSAC culture year 2004 number 3", "result": 0.5, "unit": "µg/mL"}, {"measurement": "MIC", "setting": "[5]; S. aureus BSAC culture year 2004 number 4", "result": 0.25, "unit": "µg/mL"}, {"measurement": "MIC", "setting": "[5]; S. aureus BSAC culture year 2004 number 5", "result": 0.12, "unit": "µg/mL"}, {"measurement": "MIC", "setting": "[5]; S. aureus BSAC culture year 2004 number 6", "result": 0.25, "unit": "µg/mL"}, {"measurement": "MIC", "setting": "[5]; S. aureus BSAC culture year 2004 number 7", "result": 0.12, "unit": "µg/mL"}, {"measurement": "MIC", "setting": "[5]; S. aureus BSAC culture year 2004 number 8", "result": 0.25, "unit": "µg/mL"}, {"measurement": "MIC", "setting": "[5]; S. aureus BSAC culture year 2004 number 9", "result": 0.12, "unit": "µg/mL"}, {"measurement": "MIC", "setting": "[5]; S. aureus BSAC culture year 2004 number 10", "result": 0.12, "unit": "µg/mL"}, {"measurement": "MIC", "setting": "[5]; S. aureus BSAC culture year 2005 number 1", "result": 0.25, "unit": "µg/mL"}, {"measurement": "MIC", "setting": "[5]; S. aureus BSAC culture year 2005 number 2", "result": 1, "unit": "µg/mL"}, {"measurement": "MIC", "setting": "[5]; S. aureus BSAC culture year 2005 number 3", "result": 0.12, "unit": "µg/mL"}, {"measurement": "MIC", "setting": "[5]; S. aureus BSAC culture year 2005 number 4", "result": 0.25, "unit": "µg/mL"}, {"measurement": "MIC", "setting": "[5]; S. aureus BSAC culture year 2005 number 5", "result": 0.25, "unit": "µg/mL"}, {"measurement": "MIC", "setting": "[5]; S. aureus BSAC culture year 2005 number 6", "result": 0.12, "unit": "µg/mL"}, {"measurement": "MIC", "setting": "[5]; S. aureus BSAC culture year 2005 number 7", "result": 0.25, "unit": "µg/mL"}, {"measurement": "MIC", "setting": "[5]; S. aureus BSAC culture year 2005 number 8", "result": 0.5, "unit": "µg/mL"}, {"measurement": "MIC", "setting": "[5]; S. aureus BSAC culture year 2005 number 9", "result": 0.25, "unit": "µg/mL"}, {"measurement": "MIC", "setting": "[5]; S. aureus BSAC culture year 2005 number 10", "result": 0.12, "unit": "µg/mL"}, {"measurement": "microbicidal activity against a number of different strains of Staphylococcus aureus", "setting": "[5]; result in words", "result": "displayed microbicidal activity"}, {"measurement": "MIC", "setting": "[6]; [7]", "result": 25, "unit": "µg/mL"}, {"measurement": "MIC", "setting": "[6]; value outside parentheses", "result": 33.5, "unit": "µM"}]}]}
